{"source": "the METLIN SMRT retention time set (Domingo-Almenara et al. 2019)", "data": [{"experiment": "gradient 5% acetonitrile 3 min, to 50% in 2 min, to 85% in 15 min, held 3 min, 100 µL/min", "conditions": "column: Zorbax Extend-C18 2.1 x 50 mm; eluents: water / acetonitrile, 0.1% formic acid", "in_short": "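Retention times come from adduct peaks that were picked computationally and then checked by hand. The standards, pure and pooled in mixtures of ~100 molecules, were run on a Zorbax Extend-C18 column (2.1 × 50 mm, 1.8 μm) at 100 μL/min with water and acetonitrile, each with 0.1% formic acid. Detection was by quadrupole time-of-flight mass spectrometry in positive and negative ionization mode, with a dead volume of 40 μL and a dwell volume of 900 μL.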", "units": {"RP-LC retention time": "s"}, "values": [{"smiles": "CCc1ccccc1NC(=O)CN1C(=O)C2CCCCN2c2ccc(S(=O)(=O)N(C)C)cc21", "note": "(centres undefined)", "RP-LC retention time": 918}, {"smiles": "COc1ccc(C(=O)N2C[C@@H]3C[C@H](NC(=O)c4cccs4)[C@H]2C3)c(OC)c1", "RP-LC retention time": 701}, {"smiles": "Cc1ccc(NC(=O)C(=O)NCC2CCN(S(=O)(=O)C3CC3)CC2)cc1F", "RP-LC retention time": 828}, {"smiles": "O=C(Cc1cccs1)Nc1cccn2nc(C3CCC3)nc12", "RP-LC retention time": 889}, {"smiles": "Cn1c(SCc2ccc([N+](=O)[O-])cc2)nnc1-c1ccc2c(c1)OCO2", "RP-LC retention time": 721}, {"smiles": "CC1=C(c2ccccc2)S(=O)(=O)N=C1N1CCCN(C(=O)C2CCOC2)CC1", "note": "(centres undefined)", "RP-LC retention time": 675}, {"smiles": "O=C(Nc1cccc(N2CCCCC2=O)c1)c1ccc(F)c(F)c1", "RP-LC retention time": 705}, {"smiles": "CC(CCc1ccccc1)NC(=O)c1cc2sc(Cl)cc2n1C", "note": "(centres undefined)", "RP-LC retention time": 1170}, {"smiles": "COc1ccccc1CCNC(=O)CSc1ccc(-c2cccs2)nn1", "RP-LC retention time": 802}, {"smiles": "Cc1ccc(C2(O)C(=O)N(CC(=O)Nc3ccccc3F)c3ccccc32)cc1", "note": "(centres undefined)", "RP-LC retention time": 664}, {"smiles": "O=C(Cc1ccc(F)cc1)Nc1nnc(-c2ccc(Br)cc2)s1", "RP-LC retention time": 952}, {"smiles": "CCN(CC)c1ccc(NC(=O)C2CCCN(c3ccc(=O)n(-c4cccc(Cl)c4)n3)C2)c(C)c1", "note": "(centres undefined)", "RP-LC retention time": 662}, {"smiles": "Cc1cccc(Sc2nccnc2N2CCCC(C(=O)NCc3ccccc3C)C2)c1", "note": "(centres undefined)", "RP-LC retention time": 1150}, {"smiles": "O=C(Cc1cn(Cc2ccc(Cl)cc2)c2ccccc12)NC1CC1", "RP-LC retention time": 884}, {"smiles": "CCC(C(=O)N1CCN(c2ccccn2)CC1)n1ccc2cc(S(=O)(=O)N3CCCCC3)ccc21", "note": "(centres undefined)", "RP-LC retention time": 734}, {"smiles": "CC(C)NC(=O)C1CCCN(c2nc3ncn(CC(=O)NC4CCCC4)c(=O)c3s2)C1", "note": "(centres undefined)", "RP-LC retention time": 1210}, {"smiles": "COc1cccc(NC(=O)N2CCCC2c2nc(-c3cccc(Cl)c3)no2)c1", "note": "(centres undefined)", "RP-LC retention time": 1050}, {"smiles": "COc1ccc(C)cc1NC(=O)Cn1nc2c(Oc3cc(C)cc(C)c3)nccn2c1=O", "RP-LC retention time": 1050}, {"smiles": "COc1ccc(-n2nc(C(=O)N3CCN(c4ccccn4)CC3)c3c4ccccc4n(C)c3c2=O)cc1", "RP-LC retention time": 676}, {"smiles": "Cc1ccccc1-c1nc(C2CCN(S(=O)(=O)c3ccc4c(c3)CCC4)CC2)no1", "RP-LC retention time": 1130}, {"smiles": "CCc1ccc(CNC(=O)C2CCc3nc(N4CCOCC4)ncc3C2)cc1", "note": "(centres undefined)", "RP-LC retention time": 802}, {"smiles": "COCCCNC(=O)C1(CCO)CCN(Cc2ccccc2)C1", "note": "(centres undefined)", "RP-LC retention time": 560}, {"smiles": "COc1ccc(OC)c(NC(=O)NC2CCN(c3ccc(C)cc3)C2=O)c1", "note": "(centres undefined)", "RP-LC retention time": 837}, {"smiles": "CCc1c(C2CCN(C(=O)c3cccc(C#N)c3)CC2)noc1N", "RP-LC retention time": 690}, {"smiles": "O=C(Cn1nc(N2CCCCCC2)c2ccccc2c1=O)Nc1cccc(Cl)c1", "RP-LC retention time": 1180}, {"smiles": "O=C(C1CCN(S(=O)(=O)c2ccc3[nH]c4c(c3c2)CCCCC4)CC1)N1CCCC1", "RP-LC retention time": 906}, {"smiles": "O=C(Nc1cccc(Cl)c1)N1CCC(n2c(-c3ccco3)nc3cccnc32)C1", "note": "(centres undefined)", "RP-LC retention time": 800}, {"smiles": "Cc1ccc(NC(=O)NCC2(N3CCOCC3)CCOC2)c(C)c1", "note": "(centres undefined)", "RP-LC retention time": 597}, {"smiles": "Cc1c(Cl)cccc1Nc1c(-c2ccc(Cl)cc2)nc2ncccn12", "RP-LC retention time": 992}, {"smiles": "COCCN(CCOC)c1nc(S(=O)(=O)c2ccc(C)cc2)c(Cl)s1", "RP-LC retention time": 939}, {"smiles": "CCc1nc2ccccc2c(=O)n1Cc1noc(-c2ccc3c(c2)OCO3)n1", "RP-LC retention time": 964}, {"smiles": "Nc1nc(CC(=O)Nc2ccc(CCNC[C@H](O)c3ccccc3)cc2)cs1", "RP-LC retention time": 591}, {"smiles": "N#Cc1ccc(C(=O)N2CCCC(COc3ccc(C(=O)NC4CC4)cc3)C2)cc1", "note": "(centres undefined)", "RP-LC retention time": 757}, {"smiles": "O=C(NC1CCCCCCC1)C1CC(=O)N(CCc2c[nH]c3ccc(Cl)cc23)C1", "note": "(centres undefined)", "RP-LC retention time": 732}, {"smiles": "CC1CCCCN1c1cc(-n2cnc(C(=O)N3CCCCC3)c2)ncn1", "note": "(centres undefined)", "RP-LC retention time": 880}, {"smiles": "CCOC(=O)COC(=O)c1cn(-c2ccc(F)cc2)c(=O)c2ccccc12", "RP-LC retention time": 1030}, {"smiles": "COc1cccc(CCC(=O)N(C)C[C@@]23CCC[C@H]2N(C)C(=O)CC3)c1", "RP-LC retention time": 571}, {"smiles": "CC(C)NC(=O)NCCC1CCN(S(=O)(=O)c2ccccc2)CC1", "RP-LC retention time": 732}, {"smiles": "CCCN1C(=O)COc2ccc(-c3csc(NC(=O)c4ccc(OC)c(OC)c4)n3)cc21", "RP-LC retention time": 971}, {"smiles": "COC(=O)C1=CN(c2cc(F)ccc2C)c2ccc(F)cc2S1(=O)=O", "RP-LC retention time": 898}, {"smiles": "Cc1ccc(CC(=O)N2CCc3nc(-c4ccc(Cl)cc4)ncc3C2)cc1", "RP-LC retention time": 1150}, {"smiles": "CCn1cc(-c2ccncc2)cc1C(=O)NCc1ccc(Cl)cc1", "RP-LC retention time": 679}, {"smiles": "CC(C)Oc1ccc(CNC(=O)CCCN2C(=O)CCn3nc(-c4cccn4C)cc32)cc1", "RP-LC retention time": 833}, {"smiles": "CCSc1ccc(-c2cccc(NC(=O)COC)c2)nn1", "RP-LC retention time": 762}]}]}
